Assay results published in patent US20150321164A1, “METHOD FOR SYNTHESIZING AND SCREENING LEAD COMPOUND AND REAGENT TESTING KIT” (HITGEN LTD., priority 2012, published 2015).

Biological target: T1, trypsin (Bos taurus, UniProt P00760)
T1 sequence (P00760 24-246): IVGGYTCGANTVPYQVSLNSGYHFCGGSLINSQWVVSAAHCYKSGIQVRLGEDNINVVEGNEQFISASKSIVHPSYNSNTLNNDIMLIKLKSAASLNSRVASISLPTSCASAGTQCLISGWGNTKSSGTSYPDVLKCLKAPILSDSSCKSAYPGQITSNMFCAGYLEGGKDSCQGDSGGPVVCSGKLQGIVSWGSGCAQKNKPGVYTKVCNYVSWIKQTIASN
Assay: trypsin enzyme inhibition activity
Type: biochemical
Details: enzyme inhibition activity of the resynthesized screened compound, FIGS. 4-5
Protocol: According to the structural formula, the compound is tested at the end of synthesis.

Compound: C[C@H](NC(=O)[C@H](CNC(=O)Cc1ccc2ccccc2c1)NS(=O)(=O)c1ccccc1)C(=O)NCc1ccc(C(=N)N)cc1
- IC50: 8.1 ± 2.1 nM
